Assay [1] has as its system PRTFDC1 gene expression in oral squamous-cell carcinoma cell lines not expressing the PRTFDC1 gene. The assay can be described thus: RT-PCR of PRTFDC1 gene expression after treatment with demethylating reagent or deacetylation inhibitory agent. Type of assay: cell-based. Particulars: oral squamous-cell carcinoma cells (NA, HSC-2, ZA). The procedure: (d) Oral squamous-cell carcinoma cells (NA, HSC-2, and ZA) were treated (+) or not treated (−) with 5-aza-dCyd ([…]) for 5 days or with TSA ([…]) for 24 hours. The results of RT-PCR analysis on the PRTFDC1 gene in the oral squamous-cell carcinoma cells are shown.
To examine the expression levels of the 6 above genes (the PRTFDC1 gene, the e10orf6 gene, the THNSL1 gene, the GPR158 gene, the MYO3A gene, and the GAD2 gene), 18 types of oral squamous-cell carcinoma cell line and normal oral epithelium cells were subjected to reverse transcriptase (RT)-PCR. Specifically, a single-chain cDNA was synthesized from the RNA extracted from each cultured cell line using the SuperScript First-Strand Synthesis System (Invitrogen). PCR was then performed using primer sequences listed in Table 4 (supplementary Table 1). Moreover, a glyceraldehyde-3-phosphate dehydrogenase (GAPDH) gene was used as a control. As a result, complete disappearance of PRTFDC1 mRNA expression could be confirmed in 8 cell lines in which homozygous deletion of chromosomal region 10p12 should not have taken place, as in the case of HSC-6 cells (FIG. 2c). […] Such disappearance of PRTFDC1 mRNA expression in the oral squamous-cell carcinoma cell lines may be due to a mechanism other than genomic deletion, such as an epigenetic phenomenon.
To examine if the suppressed expression of the PRTFDC1 gene was due to DNA methylation, oral squamous-cell carcinoma cell lines not expressing the PRTFDC1 gene were treated using a 1 μM or 5 μM demethylating reagent 5—aza—dCyd for 5 days and/or using deacetylation inhibitory agent TSA (100 ng/ml) for 24 hours. RNAs were extracted from these cells and then PRTFDC1 gene expression was examined by RT-PCR (FIG. 2d).

For assay [2], the system named is CpG islands of the PRTFDC1 gene. The assay can be described thus: Demethylation of CpG islands by culturing oral squamous-cell carcinoma cells with demethylating reagent. In kind it is cell-based. Conditions: oral squamous-cell carcinoma cells cultured in the presence of the reagent.

Structures are written as SMILES.

As to `Nc1ncn([C@H]2C[C@H](O)[C@@H](CO)O2)c(=O)n1` [5-aza-dCyd, 5-azadeoxycytidine], the “PRTFDC1 gene expression (RT-PCR)” value in assay [1] (5-aza-dCyd 1 μM or 5 μM for 5 days) was “recovers its gene expression”; in assay [1] (5-aza-dCyd 1 μM or 5 μM for 5 days, listed as 5-azadeoxycytidine), “possible to recover the expression level”. Also, in assay [2], the “demethylation of CpG islands” value was “possible to demethylate”.

As to `CC(/C=C/C(=O)NO)=C\[C@@H](C)C(=O)c1ccc(N(C)C)cc1` [TSA], in assay [1] (TSA 100 ng/ml for 24 hours), the “PRTFDC1 gene expression (RT-PCR)” value is “no differences”.

The values are drawn from patent US20090011950A1, “METHOD FOR DETECTING ORAL SQUAMOUS-CELL CARCINOMA AND METHOD FOR SUPPRESSING THE SAME” (priority 2007, published 2009).
